≈ marks a conversion by molar mass, not a printed value.

Consider ten molecules from patent publication US4311698A, “Aminoacid derivatives of cephalosporin compounds” (priority 1980, dated 1982).

Holding throughout (format): cell-based
The subject of experiment [1] is Staph S 18713. Description: In vitro minimal inhibitory concentration, Staph S 18713.
Experiment [2] relates to Pseudomonas UI 18. Description: In vitro minimal inhibitory concentration, Pseudomonas UI 18. Particulars: UI18.
Experiment [3] deals with Klebs. Pneum. MGH 2. Kind of experiment: In vitro minimal inhibitory concentration, Klebs. Pneum. MGH 2.
Experiment [4] concerns Staph UC76. Kind of experiment: In vitro minimal inhibitory concentration, Staph UC76.
For experiment [5], the system named is E. Coli. Vogel. Description: In vitro minimal inhibitory concentration, E. Coli. Vogel. Conditions: Escherichia coli.
Experiment [6] has as its system Prot Vulg. Kind of experiment: In vitro minimal inhibitory concentration, Prot Vulg.
The subject of experiment [7] is Entero Cloac. IM 11. Kind of experiment: In vitro minimal inhibitory concentration, Entero Cloac. IM 11.
Experiment [8] relates to Pseudomonas #28. Kind of experiment: In vitro minimal inhibitory concentration, Pseudomonas #28. Particulars: Pseudomonas #28; in vitro; read-out: Minimal Inhibitory Concentration.
In experiment [9] the test system is Strep. fec. MGH 2. Description: In vitro minimal inhibitory concentration, Strep. fec. MGH 2.
Experiment [10] relates to E. Coli. Brig. Kind of experiment: In vitro minimal inhibitory concentration, E. Coli. Brig. Particulars: Escherichia coli.
The subject of experiment [11] is Serr. Mar. IMM 16. Description: In vitro minimal inhibitory concentration, Serr. Mar. IMM 16.
The test system of experiment [12] is Pseudomonas BRK 12-4-4. Kind of experiment: In vitro minimal inhibitory concentration, Pseudomonas BRK 12-4-4. Conditions: BRK1244.

Take `CC(=O)N[C@@H](CCC(N)=O)C(=O)Nc1ccc(-c2ccc(C(=O)N[C@@H](C(=O)NC3C(=O)N4C(C(=O)O)=C(CSc5nnnn5C)CSC34)c3ccccc3)c(=O)[nH]2)cc1` (stereo partly drawn) [Example 9, N-[6-[4-(N-Acetyl-L-glutaminylamino)phenyl]-1,2-dihydro-2-oxonicotinyl]-7-(D-2-amino-2-phenylacetamido]-3-[[(1-methyl-1H-tetrazol-5-yl)thio]methyl]-3-cephem-4-carboxylic acid]: the MIC in experiment [1] worked out at 3.1 µg/mL (≈ 3.67 µM); in experiment [2], 6.3 µg/mL (≈ 7.47 µM); in experiment [3], 0.8 µg/mL (≈ 0.948 µM); in experiment [4], 0.4 µg/mL (≈ 0.474 µM); in experiment [5] it was 0.4 µg/mL (≈ 0.474 µM); in experiment [6], 6.3 µg/mL (≈ 7.47 µM). Also, the MIC in experiment [7] was 1.6 µg/mL (≈ 1.9 µM); in experiment [8], 3.1 µg/mL (≈ 3.67 µM); in experiment [9] it was 25 µg/mL (≈ 29.6 µM); in experiment [10], 3.1 µg/mL (≈ 3.67 µM); in experiment [11], 12.5 µg/mL (≈ 14.8 µM); in experiment [12], 6.3 µg/mL (≈ 7.47 µM).

Consider `CC(=O)NC(C)(C)C(=O)Nc1ccc(-c2ccc(C(=O)N[C@@H](C(=O)NC3C(=O)N4C(C(=O)O)=C(COC(C)=O)CSC34)c3ccccc3)c(=O)[nH]2)cc1` (stereo partly drawn) [Example 11, N-[6-[4-(N-Acetyl-alpha-aminoisobutyrylamino)phenyl]-1,2-dihydro-2-oxonicotinyl]-7-[D-2-amino-2-phenylacetamido]-3-acetoxymethyl-3-cephem-4-carboxylicacid], for which the MIC is 3.1 µg/mL (≈ 4.16 µM) in [1]; 6.3 µg/mL (≈ 8.46 µM) in experiment [2]; 12.5 µg/mL (≈ 16.8 µM) in [3]; 0.4 µg/mL (≈ 0.537 µM) in [4]; 3.1 µg/mL (≈ 4.16 µM) in experiment [5]; 12.5 µg/mL (≈ 16.8 µM) in experiment [6]. Further, the MIC in experiment [7] was found to be 12.5 µg/mL (≈ 16.8 µM); in experiment [8], 3.1 µg/mL (≈ 4.16 µM); in [9] it was 25 µg/mL (≈ 33.6 µM); in experiment [10] it was 12.5 µg/mL (≈ 16.8 µM); in [11], 50 µg/mL (≈ 67.1 µM); in experiment [12], 6.3 µg/mL (≈ 8.46 µM).

In the case of `CC(=O)OCC1=C(C(=O)O)N2C(=O)C(NC(=O)[C@H](NC(=O)c3ccc(-c4ccc(NC(=O)[C@@H]5CCCN5C(C)=O)cc4)[nH]c3=O)c3ccccc3)C2SC1` (stereo partly drawn) [Example 12, N-[6-[4-(N-Acetyl-L-prolylamino)phenyl]-1,2-dihydro-2-oxonicotinyl]-7-[D-2-amino-2-phenylacetamido]-3-acetoxymethyl-3-cephem-4-carboxylic acid], the MIC in experiment [1] was determined as 3.1 µg/mL (≈ 4.1 µM); in [2] it was 6.3 µg/mL (≈ 8.32 µM); in experiment [3], 6.3 µg/mL (≈ 8.32 µM); in experiment [4], 0.8 µg/mL (≈ 1.06 µM); in experiment [5], 3.1 µg/mL (≈ 4.1 µM); in [6], 25 µg/mL (≈ 33 µM). In addition, the MIC in [7] was determined as 12.5 µg/mL (≈ 16.5 µM); in experiment [8], 6.3 µg/mL (≈ 8.32 µM); in [9], 12.5 µg/mL (≈ 16.5 µM); in experiment [10], 6.3 µg/mL (≈ 8.32 µM); in [11], 50 µg/mL (≈ 66.1 µM); in experiment [12], 12.5 µg/mL (≈ 16.5 µM).

For the molecule `CC(=O)N[C@H](CC(N)=O)C(=O)Nc1ccc(-c2ccc(C(=O)N[C@@H](C(=O)NC3C(=O)N4C(C(=O)O)=C(COC(C)=O)CSC34)c3ccccc3)c(=O)[nH]2)cc1` (stereo partly drawn) [Example 13, N-[6-[4-(N-Acetyl-D-aspariginylamino)phenyl]-1,2-dihydro-2-oxonicotinyl]-7-[D-2-amino-2-phenylacetamido]-3-acetoxymethyl-3-cephem-4-carboxylic acid], the MIC in experiment [1] came to 6.3 µg/mL (≈ 8.14 µM); in experiment [2], 6.3 µg/mL (≈ 8.14 µM); in [3], 6.3 µg/mL (≈ 8.14 µM); in [4], 0.8 µg/mL (≈ 1.03 µM); in experiment [5], 3.1 µg/mL (≈ 4.01 µM); in [6], 25 µg/mL (≈ 32.3 µM). In addition, the MIC in [7] is 12.5 µg/mL (≈ 16.2 µM); in [8], 12.5 µg/mL (≈ 16.2 µM); in experiment [9] it was 25 µg/mL (≈ 32.3 µM); in [10], 12.5 µg/mL (≈ 16.2 µM); in experiment [11], greater than 50 µg/mL; in [12], 12.5 µg/mL (≈ 16.2 µM).

As to `CC(=O)N[C@@H](CCC(N)=O)C(=O)Nc1ccc(-c2ccc(C(=O)N[C@@H](C(=O)NC3C(=O)N4C(C(=O)O)=C(COC(C)=O)CSC34)c3ccccc3)c(=O)[nH]2)cc1` (stereo partly drawn) [Example 14, N-[6-[4-(N-Acetyl-L-glutaminylamino)phenyl]-1,2-dihydro-2-oxonicotinyl]-7-[D-2-amino-2-phenylacetamido]-3-acetoxymethyl-3-cephem-4-carboxylic acid], the MIC in experiment [1] was found to be 1.6 µg/mL (≈ 2.03 µM); in [2], 6.3 µg/mL (≈ 8 µM); in experiment [3], 3.1 µg/mL (≈ 3.93 µM); in experiment [4], 0.8 µg/mL (≈ 1.02 µM); in experiment [5] it was 1.6 µg/mL (≈ 2.03 µM); in [6] it was 25 µg/mL (≈ 31.7 µM). Also, the MIC in experiment [7] was found to be 12.5 µg/mL (≈ 15.9 µM); in experiment [8], 3.1 µg/mL (≈ 3.93 µM); in experiment [9] it was 12.5 µg/mL (≈ 15.9 µM); in experiment [10], 6.3 µg/mL (≈ 8 µM); in [11] it was 50 µg/mL (≈ 63.5 µM); in experiment [12], 6.3 µg/mL (≈ 8 µM).

With `CC(=O)N[C@@H](C)C(=O)Nc1ccc(-c2ccc(C(=O)N[C@@H](C(=O)NC3C(=O)N4C(C(=O)O)=C(CSc5nnc(C)s5)CSC34)c3ccccc3)c(=O)[nH]2)cc1` (stereo partly drawn) [Example 15, N-[6-[4-(N-Acetyl-L-alanylamino)phenyl]-1,2-dihydro-2-oxonicotinyl]-7-[D-2-amino-2-phenylacetamido]-3-[([5-methyl-1,3,4-thiadiazolyl-2-yl]thio)methyl]-3-cephem-4-carboxylic acid], the MIC in experiment [1] amounted to 6.3 µg/mL (≈ 7.85 µM); in experiment [2], 12.5 µg/mL (≈ 15.6 µM); in [3] it was 3.1 µg/mL (≈ 3.86 µM); in experiment [4], 0.4 µg/mL (≈ 0.498 µM); in [5], 1.6 µg/mL (≈ 1.99 µM); in [6], 12.5 µg/mL (≈ 15.6 µM). Besides, the MIC in experiment [7] was determined as 12.5 µg/mL (≈ 15.6 µM); in experiment [8], 12.5 µg/mL (≈ 15.6 µM); in experiment [9], 12.5 µg/mL (≈ 15.6 µM); in [10] it was 6.3 µg/mL (≈ 7.85 µM); in experiment [11], 25 µg/mL (≈ 31.1 µM); in experiment [12], 12.5 µg/mL (≈ 15.6 µM).

With `O=C(O)Cn1nnnc1SCC1=C(C(=O)O)N2C(=O)C(NC(=O)[C@H](NC(=O)c3ccc(-c4ccc(NC(=O)[C@@H]5CCC(=O)N5)cc4)[nH]c3=O)c3ccccc3)C2SC1` (stereo partly drawn) [Example 16, N-[6-[4-(L-Pyroglutamylamino)phenyl]-1,2-dihydro-2-oxonicotinyl]-7-[D-2-amino-2-phenylacetamido]-3-[[(1-carboxymethyl-1H-tetrazol-5-yl)thio]methyl]-3-cephem-4-carboxylic acid], the MIC in experiment [1] is 12.5 µg/mL (≈ 15.1 µM); in experiment [2], 6.3 µg/mL (≈ 7.6 µM); in [3] it was 0.8 µg/mL (≈ 0.965 µM); in experiment [4], 3.1 µg/mL (≈ 3.74 µM); in experiment [5], 0.4 µg/mL (≈ 0.483 µM); in [6], 0.4 µg/mL (≈ 0.483 µM). Also, the MIC was 3.1 µg/mL (≈ 3.74 µM) in experiment [7]; 3.1 µg/mL (≈ 3.74 µM) in experiment [8]; 50 µg/mL (≈ 60.3 µM) in [9]; 3.1 µg/mL (≈ 3.74 µM) in [10]; 6.3 µg/mL (≈ 7.6 µM) in [11]; 6.3 µg/mL (≈ 7.6 µM) in [12].

Regarding `CC(=O)N[C@H](C)C(=O)Nc1ccc(-c2ccc(C(=O)N[C@@H](C(=O)NC3C(=O)N4C(C(=O)O)=C(CSc5nnnn5C)CSC34)c3ccccc3)c(=O)[nH]2)cc1` (stereo partly drawn) [Example 19, N-[6-[4-(N-Acetyl-D-alanylamino)phenyl]-1,2-dihydro-2-oxonicotinyl]-7-[D-2-amino-2-phenylacetamido]-3-[[(1-methyl-1H-tetrazol-5-yl)thio]methyl]-3-cephem-4-carboxylic acid], the MIC is 6.3 µg/mL (≈ 8.01 µM) in [1]; 6.3 µg/mL (≈ 8.01 µM) in experiment [2]; 3.1 µg/mL (≈ 3.94 µM) in experiment [3]; 0.8 µg/mL (≈ 1.02 µM) in [4]; 0.8 µg/mL (≈ 1.02 µM) in experiment [5]; 12.5 µg/mL (≈ 15.9 µM) in experiment [6]. The MIC in experiment [7] was found to be 12.5 µg/mL (≈ 15.9 µM); in experiment [8], 6.3 µg/mL (≈ 8.01 µM); in [9], 25 µg/mL (≈ 31.8 µM); in experiment [10], 6.3 µg/mL (≈ 8.01 µM); in experiment [11], 25 µg/mL (≈ 31.8 µM); in experiment [12], 12.5 µg/mL (≈ 15.9 µM).

Consider `CC(=O)N[C@H](CC(N)=O)C(=O)Nc1ccc(-c2ccc(C(=O)N[C@@H](C(=O)NC3C(=O)N4C(C(=O)O)=C(CSc5nnnn5C)CSC34)c3ccccc3)c(=O)[nH]2)cc1` (stereo partly drawn) [Example 23, N-[6-[4-(N-Acetyl-D-asparaginylamino)phenyl]-1,2-dihydro-2-oxonicotinyl]-7-[D-2-amino-2-phenylacetamido]-3-[[(1-methyl-1H-tetrazol-5-yl)thio]methyl]-3-cephem-4-carboxylic acid], for which the MIC was found to be 6.3 µg/mL (≈ 7.59 µM) in experiment [1]; 6.3 µg/mL (≈ 7.59 µM) in experiment [2]; 1.6 µg/mL (≈ 1.93 µM) in experiment [3]; 0.8 µg/mL (≈ 0.964 µM) in experiment [4]; 0.8 µg/mL (≈ 0.964 µM) in [5]; 12.5 µg/mL (≈ 15.1 µM) in experiment [6]. Also, the MIC in [7] amounted to 6.3 µg/mL (≈ 7.59 µM); in experiment [8], 12.5 µg/mL (≈ 15.1 µM); in [9], 25 µg/mL (≈ 30.1 µM); in experiment [10], 3.1 µg/mL (≈ 3.74 µM); in experiment [11] it was 25 µg/mL (≈ 30.1 µM); in experiment [12], 6.3 µg/mL (≈ 7.59 µM).

Regarding `CC(=O)N[C@H](C)C(=O)Nc1ccc(-c2ccc(C(=O)N[C@@H](C(=O)NC3C(=O)N4C(C(=O)O)=C(CSc5nnnn5C)CSC34)c3ccc(O)cc3)c(=O)[nH]2)cc1` (stereo partly drawn) [Example 25, N-[6-[4(N-Acetyl-D-alanylamino)phenyl]-1,2-dihydro-2-oxonicotinyl]-7-[D-2-amino-2-(4-hydroxyphenyl)acetamido]-3-[[(1-methyl-1H-tetrazol-5-yl)thio]methyl]-3-cephem-4-carboxylic acid], the MIC came out at 6.3 µg/mL (≈ 7.85 µM) in experiment [1]; 3.1 µg/mL (≈ 3.86 µM) in [2]; 1.6 µg/mL (≈ 1.99 µM) in experiment [3]; 1.6 µg/mL (≈ 1.99 µM) in [4]; 0.8 µg/mL (≈ 0.996 µM) in [5]; 6.3 µg/mL (≈ 7.85 µM) in [6]. Further, the MIC in [7] turned out to be 1.6 µg/mL (≈ 1.99 µM); in experiment [8] it was 3.1 µg/mL (≈ 3.86 µM); in [9], 12.5 µg/mL (≈ 15.6 µM); in experiment [10] it was 3.1 µg/mL (≈ 3.86 µM); in experiment [11], 12.5 µg/mL (≈ 15.6 µM); in experiment [12], 3.1 µg/mL (≈ 3.86 µM).
